Measurements published in patent publication US20260242419A1, “A CYCLIC PEPTIDE FOR TRAPPING INTERLEUKIN-1 BETA” (Merck Sharp & Dohme LLC, priority 2023, published 2026).
Starred links: 1 amine or outer side, 2 acyl side, 3 side chain; linkers in the order of their positions; H or OH if unused. Non-standard residues stand in square brackets, D forms with d. Residues, ends and D or L forms follow the SMILES beside them. dPro(4R-(4-pyridylmethyl)) = O=C(O)[C@H]1C[C@@H](Cc2ccncc2)CN1; Ala(piperidin-4-yl) = O=C([C@H](CC1CCN([*:3])CC1)N[*:1])[*:2]; Trp(βS-Me,4-F) = C[C@@H](c1c[nH]c2cccc(F)c12)[C@H](N)C(=O)O; X42 = O=C([C@H]1[C@@H](Cc2ccc(-c3cncnc3)cc2)CCN1[*:1])[*:2]; Bip(4'-COOH) = N[C@@H](Cc1ccc(-c2ccc(C(=O)O)cc2)cc1)C(=O)O; Ala(1-bicyclo(1.1.1)pentyl) = N[C@@H](CC12CC(C1)C2)C(=O)O; dPro(4R-Bzl(4-F)) = O=C(O)[C@H]1C[C@@H](Cc2ccc(F)cc2)CN1; X4 = O=C([C@H]1[C@@H](Cc2ccncc2)CCN1[*:1])[*:2]; Ala(pyrimidin-5-yl) = N[C@@H](Cc1cncnc1)C(=O)O; Phe(4-COOH) = N[C@@H](Cc1ccc(C(=O)O)cc1)C(=O)O; Pro(cis-4-F) = O=C(O)[C@@H]1C[C@H](F)CN1; Ala(4-THP) = N[C@@H](CC1CCOCC1)C(=O)O; AEF = NCCOc1ccc(C[C@H](N)C(=O)O)cc1; cisHyp = O=C(O)[C@@H]1C[C@H](O)CN1; d(αMeD) = C[C@@](N)(CC(=O)O)C(=O)O; hPhe = N[C@@H](CCc1ccccc1)C(=O)O; 4Pal = N[C@@H](Cc1ccncc1)C(=O)O; αMeD = C[C@](N)(CC(=O)O)C(=O)O; d(αMeS) = C[C@@](N)(CO)C(=O)O; Dab = NCC[C@H](N)C(=O)O; Aib = CC(C)(N)C(=O)O

molecular target: T1, IL-1β (Homo sapiens, UniProt P01584); assay: IL-6 assay in MRC5 cells: inhibition of IL-1β induced IL-6 secretion (AlphaLISA); assay type: cell-based; conditions: inhibition of IL-1β induced IL-6 secretion in MRC5 cells; read-out: MRC5 IC50
T1 construct: purchased BioLegend 579404
Procedure, shortened: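 Compound was pre-incubated 1 h at ambient temperature with recombinant human IL-1β at 2λ EC80 before adding human lung fibroblast MRC5 cells (3000/well) in EMEM with 0.025% BSA. After overnight culture at 37 °C, 5% CO2, secreted IL-6 in conditioned medium was measured by AlphaLISA; IC50 from 4-parameter logistic fits.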

T1 sequence (P01584 117-269): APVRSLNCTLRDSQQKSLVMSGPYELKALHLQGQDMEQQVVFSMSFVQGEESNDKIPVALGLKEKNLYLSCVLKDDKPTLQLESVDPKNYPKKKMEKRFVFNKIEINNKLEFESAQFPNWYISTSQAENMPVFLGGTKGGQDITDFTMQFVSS

| SMILES | IC50 [nM] |
| --- | --- |
| C[C@@H](c1c[nH]c2cccc(F)c12)[C@@H]1NC(=O)[C@@H]2C[C@H](O)CN2C(=O)CNC(=O)[C@H](Cc2ccc(C(=O)O)cc2)NC(=O)[C@H](CC23CC(C2)C3)NC(=O)[C@H](Cc2ccc(-c3ccc(C(=O)O)cc3)cc2)NC(=O)[C@H]2C[C@@H](Cc3ccncc3)CN2C(=O)CNC(=O)[C@H](CCN)NC(=O)[C@H](CCC(N)=O)NC(=O)[C@H](CC2CCOCC2)NC(=O)[C@](C)(CC(=O)O)NC(=O)[C@H](Cc2c[nH]c3ccccc23)NC(=O)[C@H](CO)NC(=O)C(C)(C)NC1=O [Example 191] (cyclo([Bip(4'-COOH)][Ala(1-bicyclo(1.1.1)pentyl)][Phe(4-COOH)]G[cisHyp][Trp(βS-Me,4-F)][Aib]SW[αMeD][Ala(4-THP)]Q[Dab]G[dPro(4R-(4-pyridylmethyl))])) | 0.021 |
| C[C@@H](c1c[nH]c2cccc(F)c12)[C@@H]1NC(=O)[C@@H]2C[C@H](F)CN2C(=O)CNC(=O)[C@H](Cc2ccc(C(=O)O)cc2)NC(=O)[C@H](Cc2ccncc2)NC(=O)[C@H](Cc2ccc(-c3ccc(C(=O)O)cc3)cc2)NC(=O)[C@H]2[C@@H](Cc3ccncc3)CCN2C(=O)CNC(=O)[C@H](CCN)NC(=O)[C@H](CCC(N)=O)NC(=O)[C@H](CCc2ccccc2)NC(=O)[C@@](C)(CC(=O)O)NC(=O)[C@H](Cc2c[nH]c3ccccc23)NC(=O)[C@H](CO)NC(=O)C(C)(C)NC1=O [Example 221] (cyclo([Bip(4'-COOH)][4Pal][Phe(4-COOH)]G[Pro(cis-4-F)][Trp(βS-Me,4-F)][Aib]SW[d(αMeD)][hPhe]Q[Dab]G[X4])) | 0.02 |
| C[C@@H](c1c[nH]c2cccc(F)c12)[C@@H]1NC(=O)[C@@H]2C[C@H](F)CN2C(=O)CNC(=O)[C@H](Cc2ccc(C(=O)O)cc2)NC(=O)[C@H](Cc2ccncc2)NC(=O)[C@H](Cc2ccc(-c3ccc(C(=O)O)cc3)cc2)NC(=O)[C@H]2[C@@H](Cc3ccc(-c4cncnc4)cc3)CCN2C(=O)CNC(=O)[C@H](CCN)NC(=O)[C@H](CCC(N)=O)NC(=O)[C@H](Cc2cncnc2)NC(=O)C(C)(C)NC(=O)[C@H](Cc2c[nH]c3ccccc23)NC(=O)[C@H](CCC(=O)O)NC(=O)C(C)(C)NC1=O [Example 53] (cyclo([Bip(4'-COOH)][4Pal][Phe(4-COOH)]G[Pro(cis-4-F)][Trp(βS-Me,4-F)][Aib]EW[Aib][Ala(pyrimidin-5-yl)]Q[Dab]G[X42])) | 0.018 |

Now from value to compound:

| IC50 [nM] | SMILES |
| --- | --- |
| 0.029 | C[C@@H](c1c[nH]c2cccc(F)c12)[C@@H]1NC(=O)[C@@H]2C[C@H](F)CN2C(=O)CNC(=O)[C@H](Cc2ccc(C(=O)O)cc2)NC(=O)[C@H](Cc2ccncc2)NC(=O)[C@H](Cc2ccc(-c3ccc(C(=O)O)cc3)cc2)NC(=O)[C@H]2C[C@@H](Cc3ccc(F)cc3)CN2C(=O)CNC(=O)[C@H](CO)NC(=O)[C@H](CCC(N)=O)NC(=O)[C@H](CC2CCNCC2)NC(=O)C(C)(C)NC(=O)[C@H](Cc2c[nH]c3ccccc23)NC(=O)[C@H](CCC(=O)O)NC(=O)C(C)(C)NC1=O [Example 121] (cyclo([Bip(4'-COOH)][4Pal][Phe(4-COOH)]G[Pro(cis-4-F)][Trp(βS-Me,4-F)][Aib]EW[Aib][Ala(piperidin-4-yl)]QSG[dPro(4R-Bzl(4-F))])) |
| 0.015 | CC(=O)NCCOc1ccc(C[C@@H]2NC(=O)[C@H]3C[C@@H](Cc4ccncc4)CN3C(=O)CNC(=O)[C@H](CCN)NC(=O)[C@H](CCC(N)=O)NC(=O)[C@H](Cc3c[nH]cn3)NC(=O)C(C)(C)NC(=O)[C@H](Cc3c[nH]c4ccccc34)NC(=O)[C@H](CCC(=O)O)NC(=O)C(C)(C)NC(=O)[C@H]([C@@H](C)c3c[nH]c4cccc(F)c34)NC(=O)[C@@H]3C[C@H](F)CN3C(=O)CNC(=O)[C@H](Cc3ccc(C(=O)O)cc3)NC(=O)[C@H](Cc3ccncc3)NC2=O)cc1 [Example 317] (cyclo([AEF](Ac)[4Pal][Phe(4-COOH)]G[Pro(cis-4-F)][Trp(βS-Me,4-F)][Aib]EW[Aib]HQ[Dab]G[dPro(4R-(4-pyridylmethyl))])) |
| 0.013 | C[C@@H](c1c[nH]c2cccc(F)c12)[C@@H]1NC(=O)[C@@H]2C[C@H](F)CN2C(=O)CNC(=O)[C@H](Cc2ccc(C(=O)O)cc2)NC(=O)[C@H](Cc2ccncc2)NC(=O)[C@H](Cc2ccc(-c3ccc(C(=O)O)cc3)cc2)NC(=O)[C@H]2C[C@@H](Cc3ccc(F)cc3)CN2C(=O)CNC(=O)[C@H](CCN)NC(=O)[C@H](CCC(N)=O)NC(=O)[C@H](Cc2ccncc2)NC(=O)[C@@](C)(CC(=O)O)NC(=O)[C@H](Cc2c[nH]c3ccccc23)NC(=O)[C@H](CO)NC(=O)C(C)(C)NC1=O [Example 324] (cyclo([Bip(4'-COOH)][4Pal][Phe(4-COOH)]G[Pro(cis-4-F)][Trp(βS-Me,4-F)][Aib]SW[d(αMeD)][4Pal]Q[Dab]G[dPro(4R-Bzl(4-F))])) |
| 0.013 | C[C@@H](c1c[nH]c2cccc(F)c12)[C@@H]1NC(=O)[C@@H]2C[C@H](O)CN2C(=O)CNC(=O)[C@H](Cc2ccc(C(=O)O)cc2)NC(=O)[C@H](Cc2ccncc2)NC(=O)[C@H](Cc2ccc(-c3ccc(C(=O)O)cc3)cc2)NC(=O)[C@H]2C[C@@H](Cc3ccncc3)CN2C(=O)CNC(=O)[C@H](CCN)NC(=O)[C@H](CCC(N)=O)NC(=O)[C@H](Cc2cncnc2)NC(=O)[C@@](C)(CO)NC(=O)[C@H](Cc2c[nH]c3ccccc23)NC(=O)[C@H](CO)NC(=O)C(C)(C)NC1=O [Example 195] (cyclo([Bip(4'-COOH)][4Pal][Phe(4-COOH)]G[cisHyp][Trp(βS-Me,4-F)][Aib]SW[d(αMeS)][Ala(pyrimidin-5-yl)]Q[Dab]G[dPro(4R-(4-pyridylmethyl))])) |
